Data taken from ChEMBL document CHEMBL1201862, “PubChem BioAssay data set” (2004).
Counter-ions that a name gives are not always drawn. One block for each compound: values may come before it. The source made the active and inactive calls.

Columns and labels:
Vero = assay: viability loss in Vero cells – cell-based, plate reader, cherry-pick samples, cytotoxicity control, dose response (AID 687020); assay type: functional; settings: Chlorocebus sabaeus
[1] = viability loss in HEK293T cells – cell-based, cherry-picks, cytotoxicity control for HIV Vif inhibitor project, dose response (AID 652208); assay type: functional
[2] = molecular target: 5-hydroxytryptamine receptor 2A (Mus musculus, UniProt P35363); assay type: functional, cell-based;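 also: CHO-K1 cells with tagged receptor and beta-arrestin; agonist potency measured as compound-induced activation of the receptor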
Mu-type opioid receptor = Mu-type opioid receptor (Homo sapiens, UniProt P35372); assay type: functional, cell-based;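 also: U2OS cells with beta-arrestin recruitment to OPRM1 by beta-gal complementation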
[3] = molecular target: T1, Trace amine-associated receptor 1 (Homo sapiens, UniProt Q96RJ0); assay: Fluorescence-based cell-based high throughput dose response assay to identify agonists of the human trace amine associated receptor 1 (TAAR1).; assay type: functional
cells [4] = assay type: functional, cell-based
cells [5] = assay type: functional, cell-based; remark: listed apart in the source
[6] = molecular target: T1, Trace amine-associated receptor 1; assay: Counterscreen for agonists of the human trace amine associated receptor 1 (hTAAR1): Fluorescence-based cell-based high throughput dose response assay to identify hTAAR1 agonist that also desensitize TAAR1 receptor response.; assay type: functional
[7] = molecular target: T2, Beta-2 adrenergic receptor (Homo sapiens, UniProt P07550); assay: ADRB2 activation measured by internalization – cell-based, FAP fluorogen, flow cytometry, cherry pick 1, dose response (AID 588763); assay type: functional
[8] = molecular target: T2, Beta-2 adrenergic receptor; assay: Dose response for HTS for Beta-2AR agonists via FAP method from Powderset1.; assay type: functional
[9] = molecular target: T3, Carboxy-terminal domain RNA polymerase II polypeptide A small phosphatase 1 (Homo sapiens, UniProt Q9GZU7); assay: CTDSP1 inhibitors, concentration-response, biochemical, absorbance readout, ultra-high-throughput screen actives (AID 540297); assay type: functional
T3 sequence (Q9GZU7 whole entry): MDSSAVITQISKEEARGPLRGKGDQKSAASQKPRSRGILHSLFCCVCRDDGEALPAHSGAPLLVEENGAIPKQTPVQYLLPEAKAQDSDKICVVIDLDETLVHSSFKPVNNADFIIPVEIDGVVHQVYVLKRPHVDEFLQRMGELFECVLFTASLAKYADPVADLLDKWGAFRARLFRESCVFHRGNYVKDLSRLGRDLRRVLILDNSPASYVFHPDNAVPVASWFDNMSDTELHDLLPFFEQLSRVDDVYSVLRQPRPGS

[10] = Counterscreen for activators of the function of SWI/SNF related, matrix associated, actin dependent regulator of chromatin, subfamily a, member 2 (SMARCA2, BRM): Luminescence-based cell-based high throughput dose response assay to identify non-selective compounds using the VP16 reporter assay.; assay type: functional
[11] = molecular target: SWI/SNF-related matrix-associated actin-dependent regulator of chromatin subfamily A member 2 (Homo sapiens, UniProt P51531); assay: Luminescence-based cell-based high throughput dose response assay to identify activators of the function of SWI/SNF related, matrix associated, actin dependent regulator of chromatin, subfamily a, member 2 (SMARCA2, BRM).; assay type: functional
[12] = viability of HCT116 lacking mutant beta-catenin – cell-based, human colon tumor, dose response (AID 1045); assay type: functional;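 also: HCT116 colon tumor cells with beta catenin knocked out; cells exposed to compound for 60 hours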
[13] = viability of PTEN-deleted HCT116 cells – cell-based, HCT116 PTEN knockout, dose response (AID 1047); assay type: functional;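 also: HCT116 colon tumor cells with PTEN knocked out; cells exposed to compound for 60 hours before readout; potency for loss of cell viability measured by luminescence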

T2 sequence (P07550 whole entry): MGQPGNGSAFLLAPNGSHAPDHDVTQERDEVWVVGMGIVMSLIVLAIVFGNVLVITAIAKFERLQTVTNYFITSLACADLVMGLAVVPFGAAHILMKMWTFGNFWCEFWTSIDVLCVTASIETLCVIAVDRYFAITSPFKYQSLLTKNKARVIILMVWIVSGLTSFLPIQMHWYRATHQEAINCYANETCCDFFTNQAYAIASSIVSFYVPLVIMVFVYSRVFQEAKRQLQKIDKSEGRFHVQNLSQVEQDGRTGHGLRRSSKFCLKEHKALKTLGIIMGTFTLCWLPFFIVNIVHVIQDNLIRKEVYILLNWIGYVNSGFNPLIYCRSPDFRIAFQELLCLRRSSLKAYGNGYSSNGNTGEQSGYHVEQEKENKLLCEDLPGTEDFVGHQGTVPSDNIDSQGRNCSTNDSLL
T1 sequence (Q96RJ0 whole entry): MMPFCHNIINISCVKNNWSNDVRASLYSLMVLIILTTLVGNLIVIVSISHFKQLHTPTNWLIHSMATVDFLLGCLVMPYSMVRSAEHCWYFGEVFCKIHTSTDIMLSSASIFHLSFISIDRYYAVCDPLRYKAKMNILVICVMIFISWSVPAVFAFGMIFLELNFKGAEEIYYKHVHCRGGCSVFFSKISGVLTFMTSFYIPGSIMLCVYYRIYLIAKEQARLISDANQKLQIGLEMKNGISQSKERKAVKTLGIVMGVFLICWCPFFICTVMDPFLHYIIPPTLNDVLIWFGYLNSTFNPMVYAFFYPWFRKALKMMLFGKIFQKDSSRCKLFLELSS
Sequence of SWI/SNF-related matrix-associated actin-dependent regulator of chromatin subfamily A member 2 (P51531 whole entry): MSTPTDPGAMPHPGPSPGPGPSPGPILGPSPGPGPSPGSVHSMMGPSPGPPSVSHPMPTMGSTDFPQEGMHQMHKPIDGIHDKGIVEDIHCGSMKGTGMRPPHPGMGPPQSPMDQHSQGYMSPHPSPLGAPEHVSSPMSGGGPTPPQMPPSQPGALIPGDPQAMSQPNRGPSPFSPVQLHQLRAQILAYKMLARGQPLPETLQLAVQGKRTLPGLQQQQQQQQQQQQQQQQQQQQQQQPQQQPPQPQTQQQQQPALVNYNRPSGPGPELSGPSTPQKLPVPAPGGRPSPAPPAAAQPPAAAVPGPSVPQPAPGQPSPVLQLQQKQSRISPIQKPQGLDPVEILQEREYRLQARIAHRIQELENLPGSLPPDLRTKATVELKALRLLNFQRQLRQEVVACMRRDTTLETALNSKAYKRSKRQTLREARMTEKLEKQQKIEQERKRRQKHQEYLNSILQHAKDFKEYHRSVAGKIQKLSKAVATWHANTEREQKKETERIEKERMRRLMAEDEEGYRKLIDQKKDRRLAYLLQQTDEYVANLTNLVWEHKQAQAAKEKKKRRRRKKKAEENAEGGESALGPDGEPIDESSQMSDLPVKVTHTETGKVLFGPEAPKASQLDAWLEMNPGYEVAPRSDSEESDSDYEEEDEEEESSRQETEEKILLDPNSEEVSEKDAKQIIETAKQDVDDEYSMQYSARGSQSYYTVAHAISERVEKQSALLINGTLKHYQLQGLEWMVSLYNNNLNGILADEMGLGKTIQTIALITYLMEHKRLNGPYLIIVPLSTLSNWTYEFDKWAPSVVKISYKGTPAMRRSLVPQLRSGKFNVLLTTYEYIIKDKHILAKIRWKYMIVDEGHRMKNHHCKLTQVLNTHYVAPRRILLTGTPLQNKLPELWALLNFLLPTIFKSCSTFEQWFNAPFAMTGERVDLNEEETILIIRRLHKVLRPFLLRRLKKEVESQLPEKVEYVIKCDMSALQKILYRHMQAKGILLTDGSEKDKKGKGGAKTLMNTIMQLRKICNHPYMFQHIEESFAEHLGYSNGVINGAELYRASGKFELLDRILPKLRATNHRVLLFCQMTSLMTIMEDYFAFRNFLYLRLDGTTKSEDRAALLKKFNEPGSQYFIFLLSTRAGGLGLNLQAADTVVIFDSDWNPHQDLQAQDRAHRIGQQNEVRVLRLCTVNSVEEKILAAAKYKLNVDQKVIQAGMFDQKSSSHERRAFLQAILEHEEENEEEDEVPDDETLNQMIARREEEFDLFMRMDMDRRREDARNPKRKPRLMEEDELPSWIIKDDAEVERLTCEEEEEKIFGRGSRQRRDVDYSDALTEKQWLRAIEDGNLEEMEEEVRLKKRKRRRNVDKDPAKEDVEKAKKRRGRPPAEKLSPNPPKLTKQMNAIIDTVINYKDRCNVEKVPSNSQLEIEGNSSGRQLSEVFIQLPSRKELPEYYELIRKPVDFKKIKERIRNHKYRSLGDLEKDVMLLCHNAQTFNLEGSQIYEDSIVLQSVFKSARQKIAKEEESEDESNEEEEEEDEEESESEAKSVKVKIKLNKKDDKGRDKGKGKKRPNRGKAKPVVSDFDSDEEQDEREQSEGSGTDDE
Sequence of 5-hydroxytryptamine receptor 2A (P35363 whole entry): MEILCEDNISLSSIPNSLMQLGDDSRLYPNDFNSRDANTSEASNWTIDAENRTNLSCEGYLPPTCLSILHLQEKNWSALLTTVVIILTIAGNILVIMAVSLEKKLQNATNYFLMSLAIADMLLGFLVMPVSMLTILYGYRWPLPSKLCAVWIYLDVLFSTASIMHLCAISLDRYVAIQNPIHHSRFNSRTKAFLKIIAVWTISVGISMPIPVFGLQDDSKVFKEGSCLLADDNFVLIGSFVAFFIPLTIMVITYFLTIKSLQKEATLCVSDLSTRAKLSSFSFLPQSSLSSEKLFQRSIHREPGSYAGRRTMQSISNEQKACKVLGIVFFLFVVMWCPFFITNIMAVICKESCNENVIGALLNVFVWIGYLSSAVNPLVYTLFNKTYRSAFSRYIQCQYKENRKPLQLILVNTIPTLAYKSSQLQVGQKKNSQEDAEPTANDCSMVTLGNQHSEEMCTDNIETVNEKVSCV
Sequence of Mu-type opioid receptor (P35372 whole entry): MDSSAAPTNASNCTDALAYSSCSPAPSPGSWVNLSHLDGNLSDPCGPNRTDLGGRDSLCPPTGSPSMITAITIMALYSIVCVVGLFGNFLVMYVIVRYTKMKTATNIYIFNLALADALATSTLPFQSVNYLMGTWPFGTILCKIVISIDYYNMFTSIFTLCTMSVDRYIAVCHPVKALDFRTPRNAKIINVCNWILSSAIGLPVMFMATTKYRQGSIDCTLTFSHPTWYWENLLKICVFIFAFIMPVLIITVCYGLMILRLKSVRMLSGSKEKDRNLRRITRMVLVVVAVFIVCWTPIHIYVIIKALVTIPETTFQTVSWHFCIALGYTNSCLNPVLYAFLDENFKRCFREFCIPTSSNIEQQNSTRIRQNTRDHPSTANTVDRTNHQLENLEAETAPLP

SMILES: N#Cc1ccc(CN2CCN(C(=O)CC(NC(=O)c3ccccc3)c3ccccc3)CC2)cc1 (stereo not given)
AC50 (Vero): 38.1 µM (active)

SMILES: Cc1ccc(/C=C2/CNC/C(=C/c3ccc(C)cc3)C2=O)cc1
AC50 [1]: 10.3 µM (active)

SMILES: CCCN1CCC[C@@H](c2cccc(O)c2)C1 [PRECLAMOL HYDROCHLORIDE]
EC50 [2]: 76 µM (inactive)
EC50 (Mu-type opioid receptor): 92.4 µM (inactive)

SMILES: O=C(CCCCl)N1CCc2[nH]c3ccccc3c2C1
EC50 [3]: 0.492 µM (active)
IC50 (cells [4]): > 29.9 µM (inactive)
EC50 (cells [5]): > 29.9 µM (inactive)
IC50 [6]: 2.05 µM (active)

EC50 [7]: 0.629 µM (active)
EC50 [8]: 0.713 µM (active)
IC50 [9]: 9.04 µM (active)
SMILES: Cc1ccc(SCC(=O)Nc2ccc(-c3nnc(-c4ccco4)o3)cc2)cc1

SMILES: OC1CCCN(Cc2ccc3ccc4cccc5ccc2c3c45)C1 (stereo not given)
EC50 [10]: > 91.2 µM (inactive)
EC50 [11]: > 10.1 µM (inactive)
EC50 [12]: 8.21 µM (active)
EC50 [13]: 8.96 µM (active)
